By IC50 is commonly meant the concentration that inhibits the measured activity by half. Usually inhibition stands for how much of the control response was suppressed.

This is an account of results in patent US20240083857A1, “2-Methyl-Quinazolines” (Bayer Pharma Aktiengesellschaft, priority 2017, published 2024).

Assay [1] deals with K-Ras^G12C : hSOS1 interaction (Homo sapiens, UniProt Q07889). The experiment in a line: Biochemical assay 1: K-Ras^G12C interaction assay with hSOS1 (HTRF). It counts as binding. Conditions: for IC50: E-notation values, unit inferred, read-out: Assay 1 (KRAS-SOS interaction) IC50; for inhibition at 20 µM: read-out: Assay 1 (KRAS-SOS Interaction) activity expressed as % inhibition at 20 μM. Background: TR-FRET usually uses a lanthanide donor and a delayed reading to cut background.

In assay [2] the target is human SOS1 (loading of human K-Ras^G12C-GDP with fluorescent GTP-analog) (Homo sapiens, UniProt Q07889). In words: Biochemical assay 3: K-Ras^G12C activation assay by hSOS1 (HTRF). Conditions: for IC50: E-notation values, unit inferred, read-out: Assay 3 (KRAS-Activation) IC50; for inhibition at 20 µM: read-out: Assay 3 (KRAS-Activation by SOS no GTP) activity expressed as % inhibition at 20 μM, no GTP.

For the molecule `COc1cc2nc(C)nc(NC(C)c3sc(Br)cc3Cl)c2cc1OC` (stereo not shown) [Example 428, N-[1-(5-bromo-3-chlorothiophen-2-yl)ethyl]-6,7-dimethoxy-2-methylquinazolin-4-amine], the half-maximal inhibitory concentration (IC50) in assay [1] amounted to 0.916 µM; in assay [2], 1.02 µM.

Take `Cc1nc(N[C@H](C)c2cccc(Cl)c2)c2cc(CO)ccc2n1` [Example 373, (4-{[(1R)-1-(3-chlorophenyl)ethyl]amino}-2-methylquinazolin-6-yl)methanol]: the half-maximal inhibitory concentration (IC50) in assay [1] turned out to be 1.52 µM; in assay [2], 9.21 µM.

Turning to `COc1cc2nc(C)nc(NC(C)c3sc(-c4ccccc4CNC(=O)OC(C)(C)C)cc3Cl)c2cc1OC` (stereo not shown) [Example 429, tert-butyl [2-(4-chloro-5-{1-[(6,7-dimethoxy-2-methylquinazolin-4-yl)amino]ethyl}thiophen-2-yl)benzyl]carbamate], the 50% inhibitory concentration (IC50) in assay [1] is 6.09 µM; in assay [2] it was 5.04 µM.

On to `COc1cc2nc(C)nc(NC(C)c3cc(C)c(-c4ccc(F)cc4CN)s3)c2cc1OC` (stereo not shown) [Example 399, N-(1-{5-[2-(aminomethyl)-4-fluorophenyl]-4-methyl-2-thienyl}ethyl)-6,7-dimethoxy-2-methylquinazolin-4-amine], for which the 50% inhibitory concentration (IC50) was found to be 0.333 µM in assay [1] and 0.296 µM in assay [2].

Take `Cc1nc(N[C@H](C)c2cccc(Cl)c2)c2cc(-c3cnn(C)c3)ccc2n1` [Example 406, N-[(1R)-1-(3-chlorophenyl)ethyl]-2-methyl-6-(1-methyl-1H-pyrazol-4-yl)quinazolin-4-amine]: the IC50 in assay [1] turned out to be 0.727 µM; in assay [2] it was 0.855 µM.

Regarding `COc1cc2nc(C)nc(NC(C)c3ccc(-n4ccc(CCO)n4)o3)c2cc1OC` (stereo not shown) [Example 226, 2-[1-(5-{1-[(6,7-dimethoxy-2-methylquinazolin-4-yl)amino]ethyl}furan-2-yl)-1H-pyrazol-3-yl]ethanol], the inhibition at 20 µM in assay [1] is 43%; in assay [2], 24%.

With `Cc1nc(N[C@H](C)c2cccc(Cl)c2)c2cc(C(C)(C)O)ccc2n1` [Example 392, 2-(4-{[(1R)-1-(3-chlorophenyl)ethyl]amino}-2-methylquinazolin-6-yl)propan-2-ol], the results for the IC50 in assay [1] and in assay [2] were 0.338 µM and 1.52 µM, respectively.

With `COc1cc2nc(C)nc(NC(C)c3ccc(-c4c(Cl)cccc4CNC(=O)OC(C)(C)C)s3)c2cc1OC` (stereo not shown) [Example 408, tert-butyl [3-chloro-2-(5-{1-[(6,7-dimethoxy-2-methylquinazolin-4-yl)amino]ethyl}thiophen-2-yl)benzyl]carbamate], the IC50 came to 0.533 µM in assay [1] and 1.02 µM in assay [2].

With `COc1ccc(-c2ccc(C(C)Nc3nc(C)nc4cc(OC)c(OC)cc34)s2)c(CN(C)C)c1` (stereo not shown) [Example 439, N-[1-(5-{2-[(dimethylamino)methyl]-4-methoxyphenyl}thiophen-2-yl)ethyl]-6,7-dimethoxy-2-methylquinazolin-4-amine], the half-inhibitory concentration (IC50) in assay [1] amounted to 0.277 µM; in assay [2], 0.229 µM.

Turning to `CNC(=O)Nc1ccc2nc(C)nc(NC(C)c3ccc(-c4ccccc4CN(C)C)s3)c2c1` (stereo not shown) [Example 457, 1-(4-{[1-(5-{2-[(dimethylamino)methyl]phenyl}thiophen-2-yl)ethyl]amino}-2-methylquinazolin-6-yl)-3-methylurea], the results for the IC50 in assay [1] and in assay [2] were 0.295 µM and 0.638 µM, respectively.

Regarding `COc1cc2nc(C)nc(NC(C)c3ccc(-c4ccc(F)cc4CNC(=O)CO)s3)c2cc1OC` (stereo not shown) [Example 382, N-[2-(5-{1-[(6,7-dimethoxy-2-methylquinazolin-4-yl)amino]ethyl}thiophen-2-yl)-5-fluorobenzyl]-2-hydroxyacetamide], the IC50 amounted to 0.253 µM in assay [1] and 0.748 µM in assay [2].

In the case of `COc1cc2nc(C)nc(N[C@H](C)c3cccc(-c4ccccc4CC(N)=O)c3)c2cc1OC` [Example 393, 2-(3′-{(1R)-1-[(6,7-dimethoxy-2-methylquinazolin-4-yl)amno]ethyl}biphenyl-2-yl)acetamide], the figures for the 50% inhibitory concentration (IC50) in assay [1] and in assay [2] were 0.244 µM and 1.04 µM, respectively.

As for `COc1cc2nc(C)nc(NC(C)c3ccc(-c4cc(Cl)ccc4CNC(=O)OC(C)(C)C)s3)c2cc1OC` (stereo not shown) [Example 387, tert-butyl [4-chloro-2-(5-{1-[(6,7-dimethoxy-2-methylquinazolin-4-yl)amino]ethyl}-thiophen-2-yl)benzyl]carbamate], the values for the IC50 in assay [1] and in assay [2] were 1.17 µM and 8.32 µM, respectively.

As to `COc1cc2nc(C)nc(NC(C)c3cc(C)c(-c4ccccc4CN(C)C)s3)c2cc1OC` (stereo not shown) [Example 400, N-[1-(5-{2-[(dimethylamino)methyl]phenyl}-4-methyl-2-thienyl)ethyl]-6,7-dimethoxy-2-methylquinazolin-4-amine], the IC50 stood at 0.0787 µM in assay [1] and 0.0766 µM in assay [2].

As for `COc1cc2nc(C)nc(NC(C)c3ccc(C4=CCCC4)s3)c2cc1OC` (stereo not shown) [Example 231, N-{1-[5-(cyclopent-1-en-1-yl)thiophen-2-yl]ethyl}-6,7-dimethoxy-2-methylquinazolin-4-amine], the inhibition at 20 µM in assay [1] was found to be 56%; in assay [2], 24%.

Turning to `Cc1nc(NC(C)c2ccc(-c3ccccc3CN(C)C)s2)c2cc(N3CCN(C)C(=O)C3)ccc2n1` (stereo not shown) [Example 435, 4-(4-{[1-(5-{2-[(dimethylamino)methyl]phenyl}thiophen-2-yl)ethyl]amino}-2-methylquinazolin-6-yl)-1-methylpiperazin-2-one], the IC50 in assay [1] was 0.0844 µM; in assay [2], 0.0686 µM.

For the molecule `COc1cc2nc(C)nc(NC(C)c3ccc(-c4ccccc4CN(C)CC#N)s3)c2cc1OC` (stereo not shown) [Example 456, {[2-(5-{1-[(6,7-dimethoxy-2-methylquinazolin-4-yl)amino]ethyl}thiophen-2-yl)benzyl](methyl)amino}acetonitrile], the figures for the IC50 in assay [1] and in assay [2] were 0.162 µM and 0.287 µM, respectively.

Consider `COc1cc2nc(C)nc(NC(C)c3ccc(-c4ccccc4C(O)C(C)C)s3)c2cc1OC` (stereo not shown) [Example 379, 1-[2-(5-{1-[(6,7-dimethoxy-2-methylquinazolin-4-yl)amino]ethyl}thiophen-2-yl)phenyl]-2-methylpropan-1-ol], for which the IC50 in assay [1] turned out to be 0.568 µM; in assay [2], 1.63 µM.

As for `COc1cc2nc(C)nc(NC(C)c3ccc(-c4ccccc4CNC4CC4)s3)c2cc1OC` (stereo not shown) [Example 370, N-[1-(5-{2-[(cyclopropylamino)methyl]phenyl}thiophen-2-yl)ethyl]-6,7-dimethoxy-2-methylquinazolin-4-amine], the 50% inhibitory concentration (IC50) in assay [1] is 0.27 µM; in assay [2], 0.363 µM.

Regarding `COc1cc2nc(C)nc(NC(C)c3ccc(-c4ccccc4CC(N)=O)s3)c2cc1OC` (stereo not shown) [Example 394, 2-[2-(5-{1-[(6,7-dimethoxy-2-methylquinazolin-4-yl)amino]ethyl}thiophen-2-yl)phenyl]acetamide], the results for the IC50 in assay [1] and in assay [2] were 0.405 µM and 2.29 µM, respectively.

For `COc1cc2nc(C)nc(NC(C)c3ccc(-c4ccccc4C(O)CO)s3)c2cc1OC` (stereo not shown) [Example 403], the concentration for half-maximal inhibition (IC50) was found to be 0.442 µM in assay [1] and 0.632 µM in assay [2].

Consider `Cc1nc(NC(C)c2ccc(-c3ccccc3CN(C)C)s2)c2cc(N3CCN(Cc4cccnc4)CC3)ccc2n1` (stereo not shown) [Example 426, N-[1-(5-{2-[(dimethylamino)methyl]phenyl}thiophen-2-yl)ethyl]-2-methyl-6-[4-(pyridin-3-ylmethyl)piperazin-1-yl]quinazolin-4-amine], for which the figures for the IC50 in assay [1] and in assay [2] were 0.0332 µM and 0.0315 µM, respectively.

Turning to `Cc1nc(NC(C)c2ccc(-c3ccccc3CN(C)C)s2)c2cc(N3CCN(Cc4ccccc4)C(=O)C3)ccc2n1` (stereo not shown) [Example 458, 1-benzyl-4-(4-{[1-(5-{2-[(dimethylamino)methyl]phenyl}thiophen-2-yl)ethyl]amino}-2-methylquinazolin-6-yl)piperazin-2-one], the concentration for half-maximal inhibition (IC50) in assay [1] was determined as 0.048 µM; in assay [2], 0.0455 µM.

On to `Cc1nc(NC(C)c2ccc(Br)s2)c2cc(N3CCC(N(C)C)C3)ccc2n1` (stereo not shown) [Example 414, N-[1-(5-bromothiophen-2-yl)ethyl]-6-[3-(dimethylamino)pyrrolidin-1-yl]-2-methylquinazolin-4-amine], for which the results for the half-inhibitory concentration (IC50) in assay [1] and in assay [2] were 1.38 µM and 1.46 µM, respectively.

Take `COc1cc2nc(C)nc(NC(C)c3ccc(-c4ccc(Cl)cc4CN)s3)c2cc1OC` (stereo not shown) [Example 398, N-[1-{5-[2-(aminomethyl)-4-chlorophenyl]thiophen-2-yl}ethyl]-6,7-dimethoxy-2-methylquinazolin-4-amine]: the concentration for half-maximal inhibition (IC50) in assay [1] was found to be 0.104 µM; in assay [2], 0.0721 µM.

With `CC(=O)Nc1ccc2nc(C)nc(NC(C)c3ccc(-c4ccccc4CN(C)C)s3)c2c1` (stereo not shown) [Example 420, N-(4-{[1-(5-{2-[(dimethylamino)methyl]phenyl}thiophen-2-yl)ethyl]amino}-2-methylquinazolin-6-yl)acetamide], the concentration for half-maximal inhibition (IC50) in assay [1] was 0.303 µM; in assay [2], 0.579 µM.

`COC(=O)c1cc(-c2ccc(C(C)Nc3nc(C)nc4cc(OC)c(OC)cc34)s2)nn1C` (stereo not shown) [Example 237, methyl 3-(5-{1-[(6,7-dimethoxy-2-methylquinazolin-4-yl)amino]ethyl}thiophen-2-yl)-1-methyl-1H-pyrazole-5-carboxylate]: the inhibition at 20 µM was found to be 31% in assay [1] and 10% in assay [2].

Turning to `C#CC(O)c1ccccc1-c1ccc(C(C)Nc2nc(C)nc3cc(OC)c(OC)cc23)s1` (stereo not shown) [Example 378, 1-[2-(5-{1-[(6,7-dimethoxy-2-methylquinazolin-4-yl)amino]ethyl}thiophen-2-yl)phenyl]prop-2-yn-1-ol], the IC50 in assay [1] is 0.43 µM; in assay [2], 1.45 µM.

Turning to `Cc1nc(NC(C)c2ccc(Br)s2)c2cc(NCCN3CCOCC3)ccc2n1` (stereo not drawn) [Example 425, N4-[l-(5-bromo-2-thienyl)ethyl]-2-methyl-N6-[2-(morpholin-4-yl)ethyl]quinazoline-4,6-diamine], the 50% inhibitory concentration (IC50) is 5.82 µM in assay [1] and 11.2 µM in assay [2].
